Test [1] has as its target T1, Fructose-bisphosphate aldolase (Mycobacterium tuberculosis, UniProt P9WQA3).
T1 sequence (P9WQA3 whole entry): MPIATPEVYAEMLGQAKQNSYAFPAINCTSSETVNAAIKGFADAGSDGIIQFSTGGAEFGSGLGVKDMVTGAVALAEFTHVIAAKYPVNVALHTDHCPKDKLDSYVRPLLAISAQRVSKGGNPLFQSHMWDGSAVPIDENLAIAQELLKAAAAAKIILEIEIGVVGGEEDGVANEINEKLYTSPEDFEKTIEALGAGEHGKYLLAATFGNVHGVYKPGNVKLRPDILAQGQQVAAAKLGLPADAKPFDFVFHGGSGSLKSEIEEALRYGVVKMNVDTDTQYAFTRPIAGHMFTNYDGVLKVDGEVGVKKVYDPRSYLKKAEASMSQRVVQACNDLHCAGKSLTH
As to the kind of experiment: Fluorescence-based biochemical high throughput dose response assay for inhibitors of the fructose-bisphosphate aldolase (FBA) of M. tuberculosis. It counts as functional.

Test [2] addresses Major prion protein (Homo sapiens, UniProt P04156). The class given is functional, cell-based.
Test [3] addresses FAD-linked sulfhydryl oxidase ALR (Homo sapiens, UniProt P55789). The test is described as follows: inhibitors of human ALR sulfhydryl oxidase, dose response, biochemical, H2O2 detection, luminescence, cherry-pick (AID 493248).
Test [4] is described as follows: cells.
Test [5] concerns the target T2, Trace amine-associated receptor 1 (Homo sapiens, UniProt Q96RJ0).
T2 sequence (Q96RJ0 whole entry): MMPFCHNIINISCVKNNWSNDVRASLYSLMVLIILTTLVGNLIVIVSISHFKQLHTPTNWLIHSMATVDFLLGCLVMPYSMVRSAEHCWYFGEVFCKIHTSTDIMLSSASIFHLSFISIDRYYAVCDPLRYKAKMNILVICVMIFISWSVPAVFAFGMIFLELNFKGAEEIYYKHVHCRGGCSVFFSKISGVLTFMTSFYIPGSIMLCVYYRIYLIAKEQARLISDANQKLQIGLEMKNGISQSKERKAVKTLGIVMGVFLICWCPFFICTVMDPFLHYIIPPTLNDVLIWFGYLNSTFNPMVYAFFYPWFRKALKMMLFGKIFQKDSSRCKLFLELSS
The test is described as follows: Counterscreen for agonists of the human trace amine associated receptor 1 (hTAAR1): Fluorescence-based cell-based high throughput dose response assay to identify hTAAR1 agonist that also desensitize TAAR1 receptor response. The class given is functional.

Test [6] in a line: cells. It counts as functional, cell-based.
Test [7] addresses T2, Trace amine-associated receptor 1. The test is described as follows: Fluorescence-based cell-based high throughput dose response assay to identify agonists of the human trace amine associated receptor 1 (TAAR1). The class given is functional.
Test [8] in a line: cells. The class given is functional, cell-based. The source holds these as a separate data set.
The test system of test [9] is Vero. As to the kind of experiment: cells. The class given is functional, cell-based. Particulars: Chlorocebus sabaeus.
A short description of test [10]: cells. This is another data set of the same source.
A short description of test [11]: HEp-2 cell cytotoxicity, dose response, cytotoxicity control for RSV inhibitor project, HTS (AID 2410). It counts as functional. The note with it: human respiratory syncytial virus.
The test system of test [12] is H9c2. The test is described as follows: cells. The class given is functional, cell-based. Particulars: Rattus norvegicus, H9c2, Myocardium.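 Also: confirmatory concentration-response retest of ultra-high-throughput screening hits for modulation of myocardial damage; cell death induced by hydrogen peroxide oxidative stress; compound pretreatment for 60 min then peroxide exposure for 2 h; potency is for protecting the cells against peroxide damage rather than for killing them.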
Test [13] relates to SN12K1. As to the kind of experiment: cells. The note with it: Homo sapiens. It counts as functional.
The test system of test [14] is P388/ADR. As to the kind of experiment: cells. It counts as functional. The note with it: Mus musculus.
The test system of test [15] is P388. As to the kind of experiment: cells. The class given is functional. The note with it: Mus musculus.
In test [16] the target is T3, DNA repair and recombination protein RAD54-like (Homo sapiens, UniProt Q92698).
T3 sequence (Q92698 whole entry): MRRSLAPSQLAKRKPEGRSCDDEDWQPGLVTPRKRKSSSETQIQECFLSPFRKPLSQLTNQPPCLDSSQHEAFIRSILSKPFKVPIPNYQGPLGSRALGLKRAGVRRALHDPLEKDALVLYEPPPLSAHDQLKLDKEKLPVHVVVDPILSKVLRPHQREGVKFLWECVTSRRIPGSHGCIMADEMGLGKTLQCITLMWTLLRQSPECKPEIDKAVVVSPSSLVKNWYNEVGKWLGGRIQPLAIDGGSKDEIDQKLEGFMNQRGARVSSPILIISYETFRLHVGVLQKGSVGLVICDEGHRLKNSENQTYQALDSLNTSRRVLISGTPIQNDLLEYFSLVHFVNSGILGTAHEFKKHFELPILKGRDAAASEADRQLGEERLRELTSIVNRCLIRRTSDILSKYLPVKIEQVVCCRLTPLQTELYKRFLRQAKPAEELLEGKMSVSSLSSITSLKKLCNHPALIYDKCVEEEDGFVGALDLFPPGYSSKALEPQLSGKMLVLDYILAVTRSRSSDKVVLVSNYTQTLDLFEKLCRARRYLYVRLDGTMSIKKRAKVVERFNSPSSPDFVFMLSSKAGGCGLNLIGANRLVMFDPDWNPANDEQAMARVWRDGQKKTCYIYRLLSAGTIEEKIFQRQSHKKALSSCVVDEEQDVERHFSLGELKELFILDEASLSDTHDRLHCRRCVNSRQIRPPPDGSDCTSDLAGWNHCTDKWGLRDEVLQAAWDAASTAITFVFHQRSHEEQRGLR
As to the kind of experiment: inhibitors of human RAD54 branch migration, confirmation, biochemical, fluorescence, cherry-picked samples, dose series (AID 651657). It counts as functional.

Test [17] deals with Paired box protein Pax-8 (Homo sapiens, UniProt Q06710). The test is described as follows: inhibitors of PAX8-driven TPO luciferase reporter, dose response, RMG-I cells, cherry-pick (AID 687027).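 Also: luciferase reporter driven by Pax8 target thyroperoxidase promoter measured by SteadyGlo luminescence.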 The class given is functional, cell-based. On the technique in general: A reporter such as luciferase makes a cellular process visible.
A short description of test [18]: IGROV1 ovarian cancer cell cytotoxicity, dose response, PAX8 inhibitor project, plate reader, dry powder samples (AID 743043). The class given is functional, cell-based. Particulars: IGROV-1.
Test [19] in a line: cytotoxicity in OVCAR8 ovarian cancer cells, dose response, PAX8 project, cell-based, plate reader, dry powder samples (AID 743197). It counts as functional. Particulars: OVCAR-8.
Test [20] is described as follows: P. falciparum Dd2 growth inhibitors, dose response, SYBR Green, cherry-picked samples (AID 1159567). The class given is functional, cell-based.
Test [21] is described as follows: NIH:OVCAR-3 ovarian cancer cell cytotoxicity, dose response, PAX8 inhibitor project, plate reader, dry powder samples (AID 743044). It counts as functional, cell-based.

Activity calls are given as the source filed them.

As to `CCC1OC2(C)OC(=N)C1(C#N)C(C#N)(C#N)C2c1ccccc1` (stereo not drawn), in [1], the IC50 – broadly, the concentration at which inhibition is half-maximal – was > 1.11 µM (active).

`COc1ccc2[nH]c3c(=S)[nH]cnc3c2c1`: the IC50 in test [2] is 5.91 µM (active). For the same molecule, in test [3], the AC50 (as a rule, the concentration at which the activity in the assay is half-maximal) is 0.035 µM (active).

Turning to `COc1ccc2[nH]c3c(S)ncnc3c2c1`, the IC50 in test [4] was > 138 µM (inactive).

Take `O=C(O)C1C2C=CC(O2)C1C(=O)NCCc1cccc(Cl)c1` (stereo not drawn): the values for the IC50 in test [5] and in test [6] were 3.1 µM (active) and > 29.9 µM (inactive), respectively. Moreover, the EC50 – broadly, the concentration giving half of the maximal effect – is 0.307 µM (active) in [7] and > 29.9 µM (inactive) in test [8].

With `c1ccc(CCn2nnnc2C(c2cccs2)N2CCN(Cc3ccc4c(c3)OCO4)CC2)cc1` (stereo not drawn), the values for the half-inhibitory concentration (IC50) in test [5] and in test [6] were 2.19 µM (active) and > 29.9 µM (inactive), respectively. In addition, the EC50 in [7] was 0.389 µM (active); in test [8] it was > 29.9 µM (inactive).

With `COc1ccccc1OCC(=O)Nc1nc2c(s1)CCCC2`, the IC50 in test [9] was 24.3 µM (active); in test [10], 28.7 µM (active). Moreover, in test [11], the CC50 (commonly the concentration giving 50% cytotoxicity) is 29.5 µM (active).

Take `Cc1ccn2cc(-c3cnoc3C)nc2c1`: in test [1], the IC50 was > 1.11 µM (active).

Regarding `COc1ccc(-c2cc(C(=O)NCC3CCCO3)c3cc(C(C)C)ccc3n2)cc1` (stereo not drawn), the concentration for half-maximal inhibition (IC50) in test [1] is 0.797 µM (active).

For the molecule `COc1ccc(Nc2nnc(-c3ccc(O)cc3)c3ccccc23)cc1C(N)=O`, the half-maximal inhibitory concentration (IC50) in test [2] is 0.759 µM (active); in [4] it was > 138 µM (inactive); in test [12] it was 15 µM (active).

`Cc1c2ccncc2c(C)c2c1[nH]c1ccc(OCCN(C)C)cc12`: the GI50 (usually the concentration that inhibits growth by half) in [13] was 0.148 µM (active); in [14], 0.0283 µM (active); in test [15] it was 0.0153 µM (active).

Regarding `COC1(O)c2cccc(Cl)c2C(=O)N1C1(C(N)=O)CCCCC1` (stereo not drawn), the GI50 in [13], in test [14] and in test [15] was > 100 µM (inactive) throughout.

With `COc1cc([C@@H]2c3cc4c(cc3[C@@H](OC3OC5CO[C@@H](c6cccs6)OC5C(O)C3O)[C@H]3COC(=O)[C@H]23)OCO4)cc(OC)c1O` (stereo partly drawn), the results for the GI50 in test [13], in test [14] and in [15] were 0.00838 µM (active), 0.877 µM (active) and 0.00815 µM (active), respectively.

Consider `Cn1c(NCCN2CCCC2)nc2cc(-c3ccsc3)sc2c1=O`, for which the AC50 in test [16] is 55.8 µM (active).

Take `C[C@@H]1CN([C@H](C)CO)C(=O)c2c(c3ccccc3n2C)-c2ccccc2CO[C@H]1CN(C)S(=O)(=O)c1ccc(C(F)(F)F)cc1`: the AC50 in test [17] is 4.41 µM (active); in test [18], 42.5 µM (active); in test [19], 27 µM (active); in test [20] it was 2.68 µM (active); in [21], 23.5 µM (active).

On to `NC(=O)c1ncn2c(=O)n(CCCl)nnc12` [MITOZOLOMIDE], for which the GI50 in test [13] is 75.2 µM (inactive); in [14], 12.3 µM (inactive); in [15] it was 13.8 µM (inactive).

Values taken from ChEMBL document CHEMBL1201862, “PubChem BioAssay data set” (2004).
